Among the test systems are NCI-H226; SR; A549; HT-29; HCT-15; RPMI-8226; HCC 2998; SN12C; PC-3; CCRF-CEM; MCF7; DU-145; IGROV-1; HOP-62; K562; SW-620; SNB-19; LOX IMVI; A498.
Common to all, as to test: NCI anticancer screen, dose series, 48 h

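Step 1: Grow cells in 96-well plates. Step 2: Expose to compound for 48 hours at 5 concentrations. Step 3: Interpolate endpoints linearly; if unreached, use highest concentration. GI50 marks 50% less growth.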 Activity calls are given as the source filed them. Cut-off read from the data, not from the text of the source: active = GI50 up to about 1.1 µM and inactive = higher. A value given as a limit tells only on which side of the number the result lay.

`O=C(O)c1cc2ccccc2c(/N=N/c2ccc(S(=O)(=O)Nc3nccs3)cc2)c1O`: the GI50 with NCI-H226 was > 100 µM (inactive); in the assay on SR, > 100 µM (inactive); in the assay on A549 it was > 100 µM (inactive); in the assay on HT-29 it was > 100 µM (inactive); in the assay with HCT-15, greater than 100 µM; in the assay on RPMI-8226 it was > 100 µM (inactive). For the same compound, the GI50 in the assay with HCC 2998, in the assay with SN12C, in the assay with PC-3, with CCRF-CEM, with MCF7 and in the assay with DU-145 was > 100 µM (inactive) in each case. Besides, the GI50 in the assay with IGROV-1, with HOP-62, with K562 and with SW-620 was > 100 µM (inactive) throughout.

`CCn1ncc2c1nc(-c1ccccc1)c[n+]2[O-]`: the GI50 in the assay on SR is > 100 µM (inactive); in the assay with A549, > 100 µM (inactive); with HT-29 it was > 100 µM (inactive); in the assay with HCT-15, greater than 100 µM; with RPMI-8226, > 100 µM (inactive); with SN12C, > 100 µM (inactive). Moreover, the GI50 in the assay with PC-3 was > 100 µM (inactive); in the assay on CCRF-CEM, > 100 µM (inactive); in the assay on MCF7, 46 µM (inactive); in the assay with DU-145 it was 5.82 µM (inactive); with IGROV-1, > 100 µM (inactive); in the assay with HOP-62, 2.22 µM (inactive). Also, the GI50 in the assay with SNB-19 was > 100 µM (inactive); in the assay on K562, > 100 µM (inactive); in the assay with LOX IMVI it was 7.01 µM (inactive).

With `Nc1ncnc2c1ncn2CC(OCP(=O)(O)O)Oc1ccccc1` (configuration not stated), the GI50 in the assay on NCI-H226 is > 100 µM (inactive); in the assay with A498, > 100 µM (inactive); with A549, > 100 µM (inactive); with HCT-15, greater than 100 µM; in the assay on RPMI-8226 it was > 100 µM (inactive); in the assay with HCC 2998 it was > 100 µM (inactive). The GI50 in the assay on SN12C, with PC-3, in the assay on CCRF-CEM, in the assay with MCF7, in the assay with DU-145 and in the assay on HOP-62 was > 100 µM (inactive) in each case. Besides, the GI50 in the assay on SNB-19, with K562, with LOX IMVI and in the assay with SW-620 was > 100 µM (inactive) throughout.

As for `O=C(O)c1ccccc1C(=O)c1ccco1`, the GI50 in the assay on NCI-H226 was > 100 µM (inactive); in the assay on SR, > 100 µM (inactive); in the assay with A498 it was > 100 µM (inactive); in the assay with A549, > 100 µM (inactive); in the assay with HT-29 it was > 100 µM (inactive); with HCT-15 it was greater than 100 µM. Further, the GI50 in the assay on HCC 2998, in the assay with SN12C, in the assay with CCRF-CEM, in the assay on IGROV-1, in the assay on HOP-62 and in the assay on SNB-19 was > 100 µM (inactive) in each case. The GI50 with K562, in the assay with LOX IMVI and in the assay with SW-620 was > 100 µM (inactive) throughout.

For `CC(C)(C)c1cc2c(OP(c3ccccc3)c3ccccc3)c(c1)Cc1cc(C(C)(C)C)cc(c1OP(c1ccccc1)c1ccccc1)Cc1cc(C(C)(C)C)cc(c1OP(c1ccccc1)c1ccccc1)Cc1cc(C(C)(C)C)cc(c1OP(c1ccccc1)c1ccccc1)C2`, the GI50 with NCI-H226 was > 5 µM (inactive); with SR it was 2.66 µM (inactive); in the assay with A498, > 5 µM (inactive); in the assay with A549, > 5 µM (inactive); in the assay with HT-29 it was > 5 µM (inactive); in the assay with HCT-15, greater than 5 µM. The GI50 with RPMI-8226, with HCC 2998, in the assay on SN12C, in the assay with CCRF-CEM, in the assay with IGROV-1 and in the assay with HOP-62 was > 5 µM (inactive) throughout. Further, the GI50 with SNB-19, in the assay on K562, with LOX IMVI and in the assay on SW-620 was > 5 µM (inactive) each time.

Take `COC(=O)C12Oc3ccc(-c4ccc5c(c4O)C(=O)C4=CCC(C)C(O)C4(C(=O)OC)O5)c(O)c3C(=O)C1=CCC(C)C2O` (configuration not stated): the GI50 with NCI-H226 was 2.09 µM (inactive); in the assay with SR it was 0.843 µM (active); with A498, 2.19 µM (inactive); in the assay on A549 it was 1.94 µM (inactive); in the assay with HT-29, 1.51 µM (inactive); in the assay with HCT-15, 1.08 µM. Besides, the GI50 in the assay with RPMI-8226 was 0.897 µM (active); in the assay on HCC 2998, 1.31 µM (inactive); in the assay with SN12C it was 1.98 µM (inactive); in the assay on CCRF-CEM, 0.733 µM (active); in the assay with IGROV-1, 1.62 µM (inactive); in the assay with HOP-62 it was 2.18 µM (inactive). The GI50 is 2.34 µM (inactive) in the assay on SNB-19, 3.77 µM (inactive) with K562, 1.49 µM (inactive) in the assay with LOX IMVI and 0.836 µM (active) in the assay on SW-620.

As to `C[C@@H](O)CCC(=O)c1ccoc1`, the GI50 in the assay on NCI-H226 is > 100 µM (inactive); in the assay on SR it was > 84.3 µM (inactive); in the assay with A498, > 100 µM (inactive); in the assay on A549, > 100 µM (inactive); in the assay on HT-29, > 100 µM (inactive); in the assay with HCT-15, greater than 100 µM. For the same compound, the GI50 with RPMI-8226, in the assay on HCC 2998, in the assay on SN12C, in the assay on CCRF-CEM, in the assay on IGROV-1 and in the assay on HOP-62 was > 100 µM (inactive) in each case. For the same compound, the GI50 in the assay on SNB-19, in the assay on K562, with LOX IMVI and in the assay with SW-620 was > 100 µM (inactive) in each case.

Regarding `O=c1[nH]c(-c2ccc(-c3nc4cc([N+](=O)[O-])ccc4c(=O)[nH]3)cc2)nc2cc([N+](=O)[O-])ccc12`, the GI50 was > 100 µM (inactive) with NCI-H226; > 100 µM (inactive) in the assay with SR; 16 µM (inactive) in the assay on A498; > 100 µM (inactive) in the assay on A549; > 100 µM (inactive) in the assay with HT-29; greater than 100 µM with HCT-15. For the same compound, the GI50 in the assay on RPMI-8226, with HCC 2998, in the assay with SN12C, with CCRF-CEM, in the assay on IGROV-1 and in the assay with HOP-62 was > 100 µM (inactive) in each case. Further, the GI50 in the assay with SNB-19, in the assay on K562, in the assay with LOX IMVI and with SW-620 was > 100 µM (inactive) each time.

Consider `COC(=O)C1CCC(=O)N1/C(C)=N/NC(=O)Nc1ccc(Cl)c(Cl)c1` (configuration not stated), for which the GI50 is > 100 µM (inactive) with SR; > 100 µM (inactive) in the assay on A498; > 100 µM (inactive) in the assay on A549; 14.4 µM in the assay with HCT-15; > 100 µM (inactive) with RPMI-8226; > 100 µM (inactive) in the assay on HCC 2998. Further, the GI50 with SN12C is > 100 µM (inactive); in the assay with CCRF-CEM, > 100 µM (inactive); in the assay on IGROV-1 it was > 100 µM (inactive); in the assay with HOP-62, > 100 µM (inactive); with SNB-19, > 100 µM (inactive); in the assay with K562, 16.6 µM (inactive). Also, the GI50 with LOX IMVI was 31.5 µM (inactive); in the assay on SW-620, > 100 µM (inactive).

Consider `CN(C)c1n/c(=N/c2cccc(Cl)c2)ss1`, for which the GI50 in the assay with NCI-H226 was 34.7 µM (inactive); in the assay on SR it was 4.12 µM (inactive); in the assay on A498, 28.1 µM (inactive); in the assay with A549, 22.7 µM (inactive); in the assay on HT-29 it was 18.8 µM (inactive); in the assay on HCT-15, 14.5 µM. The GI50 in the assay on RPMI-8226 is 0.951 µM (active); in the assay with HCC 2998, 20.4 µM (inactive); in the assay with SN12C, 12.8 µM (inactive); in the assay with CCRF-CEM it was 0.0405 µM (active); with IGROV-1 it was 20.3 µM (inactive); in the assay on HOP-62, 68.5 µM (inactive). For the same compound, the GI50 in the assay with SNB-19 is 35.9 µM (inactive); in the assay with K562, 9.08 µM (inactive); with LOX IMVI it was 14.5 µM (inactive); with SW-620 it was 5.52 µM (inactive).

With `COc1ccc(/C=C(\NC(=O)c2ccccc2)c2nc3ccccc3[nH]2)cc1`, the GI50 with NCI-H226 is 72.9 µM (inactive); with SR, 28.1 µM (inactive); in the assay with A498 it was > 100 µM (inactive); in the assay on A549, 41.6 µM (inactive); in the assay on HT-29, 36.4 µM (inactive); in the assay with HCT-15, 48.2 µM. For the same compound, the GI50 in the assay with RPMI-8226 is 18.9 µM (inactive); in the assay with HCC 2998 it was 41.9 µM (inactive); in the assay on SN12C, 41.3 µM (inactive); in the assay with CCRF-CEM, 42.4 µM (inactive); with IGROV-1, 30.5 µM (inactive); with HOP-62 it was 46.2 µM (inactive). In addition, the GI50 was 37.3 µM (inactive) in the assay on SNB-19, 34.9 µM (inactive) in the assay on K562 and 46.6 µM (inactive) in the assay with SW-620.

Consider `COC(=O)n1c(C[P+](c2ccccc2)(c2ccccc2)c2ccccc2)cc2ccccc21`, for which the GI50 in the assay on NCI-H226 was 1.73 µM (inactive); with SR it was 2.67 µM (inactive); in the assay with A498, 7.26 µM (inactive); in the assay with A549, 2.22 µM (inactive); with HT-29 it was 1.75 µM (inactive); in the assay on HCT-15, 13.3 µM. Moreover, the GI50 in the assay on RPMI-8226 was 0.352 µM (active); with HCC 2998 it was 1.15 µM (inactive); in the assay on SN12C, 2.26 µM (inactive); with CCRF-CEM, 0.931 µM (active); in the assay on IGROV-1, 0.664 µM (active); in the assay with HOP-62, 1.73 µM (inactive). Also, the GI50 with SNB-19 was 1.31 µM (inactive); with K562 it was 0.438 µM (active); in the assay with LOX IMVI, 1.07 µM (active); in the assay on SW-620, 1.85 µM (inactive).

These data come from ChEMBL document CHEMBL1201862, “PubChem BioAssay data set” (2004).
